# Where two headings read alike, the source gives them in different places.
# Key:
# [1] = system: brewers' yeast-induced hyperthermia; assay: antipyretic activity, brewers' yeast-induced hyperthermia; format: in vivo, albino male Wistar rats
# Experimental: The animals were caged under the same conditions as those described in the preceding tests. Five hours following […], determined by a rectal probe connected to a YSI thermometer (73 ATP model, Yellow Springs Instrument Company) were selected for the experiment. The animals were then randomized into groups of 10 and the compounds under examination and the vehicle were administered via the oral and parenteral routes testing each dose in two groups. Body temperature was determined at one, two and three hours after administration of the substances. […]
# gastric lesions = format: in vivo, male Wistar rats; settings: 4 consecutive days; for gastric damage index: I=mean no. of lesions+mean of severity+% incidence/10; for mean severity: scale 0 (no lesion) to 5 (perforations)
# Experimental: Male Wistar rats weighing 180 g were randomized into groups of 10. Three doses of each compound were administered. One group received the vehicle alone (10 ml/kg b.w.). Each dose was given orally for four days consecutively and the rats were sacrificed on the fifth day for necropsy. The ulcerogenic effect was evaluated by the following scale:
# (1) each haemorrhagic point at least 1 mm in diameter was scored as 1 lesion,
# (2) haemorrhagic points less than 1 mm in diameter were scored in the following manner:
# (c) 20 to 29=three lesions
# By means of this scale it was possible to obtain the gastric damage index:
# I=mean no. of lesions+mean of severity+% incidence/10
# solubility = format: physicochemical
# [2] = system: phenyl-p-quinone-induced writhing (abdominal contractions); assay: phenylquinone-induced writhing test, oral administration 1-24 h before phenyl-quinone (duration of analgesia); format: in vivo, male Wistar rats
# Experimental: Male Wistar rats weighing 110±5 g were caged for 10 days at 22±1° C. and given a balanced diet with free access to water. Twenty-four hours before the experiment the animals were randomized into groups of 10 and fasted for 14 hours but with free access to water. Each dose was tested in 3 groups of rats. […] alone (0.5% carboxymethyl-cellulose in physiological saline) in the control animals, each rat was given 2 ml of a 5% absolute ethanol aqueous solution containing 0.36% of phenyl-p-quinone (Sigma Chemical Company) in order to provoke writhings. Fifteen minutes after administration of phenyl-p-quinone the number of contractions were counted for 20 minutes. The inhibiting effect of the compounds under examination on the abdominal contractions induced by phenyl-p-quinone was calculated by the following formula: % protection= [formula]
compound,measurement,setting,value
"Cc1ccc(C(=O)c2ccc(CC(=O)NCC(=O)O)n2C)cc1 [Compound 1-c, 1-methyl-5-p-toluoylpyrrole-2-acetamidoacetic acid]",% Temperature decrease,"[1]; 50 mg/Kg i.p., 1 h",20.0%
same,% Temperature decrease,"[1]; 50 mg/Kg i.p., 2 h",21.9%
same,% Temperature decrease,"[1]; 50 mg/Kg i.p., 3 h",36.0%
same,% Temperature decrease,"[1]; 50 mg/Kg per os, 1 h",15.0%
same,% Temperature decrease,"[1]; 50 mg/Kg per os, 2 h",23.0%
same,% Temperature decrease,"[1]; 50 mg/Kg per os, 3 h",32.0%
same,% Temperature decrease,"[1]; 75 mg/Kg i.p., 1 h",19.0%
same,% Temperature decrease,"[1]; 75 mg/Kg i.p., 2 h",32.6%
same,% Temperature decrease,"[1]; 75 mg/Kg i.p., 3 h",45.2%
same,% Temperature decrease,"[1]; 75 mg/Kg per os, 1 h",16.5%
same,% Temperature decrease,"[1]; 75 mg/Kg per os, 2 h",30.7%
same,% Temperature decrease,"[1]; 75 mg/Kg per os, 3 h",42.1%
same,% Temperature decrease,"[1]; 100 mg/Kg i.p., 1 h",35.0%
same,% Temperature decrease,"[1]; 100 mg/Kg i.p., 2 h",49.1%
same,% Temperature decrease,"[1]; 100 mg/Kg i.p., 3 h",65.7%
same,% Temperature decrease,"[1]; 100 mg/Kg per os, 1 h",27.1%
same,% Temperature decrease,"[1]; 100 mg/Kg per os, 2 h",31.2%
same,% Temperature decrease,"[1]; 100 mg/Kg per os, 3 h",57.9%
same,% incidence/10 (head is drawing 38),gastric lesions; 50 mg/Kg orally,7
same,mean no. of lesions,gastric lesions; 50 mg/Kg orally,1
same,gastric damage index,gastric lesions; 50 mg/Kg orally,9.5
same,mean severity,gastric lesions; 50 mg/Kg orally,1.5
same,% incidence/10 (head is drawing 38),gastric lesions; 100 mg/Kg orally,8
same,mean no. of lesions,gastric lesions; 100 mg/Kg orally,2
same,gastric damage index,gastric lesions; 100 mg/Kg orally,12
same,mean severity,gastric lesions; 100 mg/Kg orally,2
same,% incidence/10 (head is drawing 38),gastric lesions; 200 mg/Kg orally,9
same,mean no. of lesions,gastric lesions; 200 mg/Kg orally,2.5
same,gastric damage index,gastric lesions; 200 mg/Kg orally,13.5
same,mean severity,gastric lesions; 200 mg/Kg orally,2
same,Solubility,solubility,soluble in alkali
"CCOC(=O)c1ccc(NC(=O)Cc2ccc(C(=O)c3ccc(C)cc3)n2C)cc1 [Compound 1-h, 1-methyl-5-p-toluoylpyrrole-2-N-(4-carboxyethyl-phenyl) acetamide]",% Temperature decrease,"[1]; 50 mg/Kg i.p., 1 h",12.0%
same,% Temperature decrease,"[1]; 50 mg/Kg i.p., 2 h",29.1%
same,% Temperature decrease,"[1]; 50 mg/Kg i.p., 3 h",36.2%
same,% Temperature decrease,"[1]; 50 mg/Kg per os, 1 h",13.0%
same,% Temperature decrease,"[1]; 50 mg/Kg per os, 2 h",28.0%
same,% Temperature decrease,"[1]; 50 mg/Kg per os, 3 h",31.1%
same,% Temperature decrease,"[1]; 75 mg/Kg i.p., 1 h",18.0%
same,% Temperature decrease,"[1]; 75 mg/Kg i.p., 2 h",27.2%
same,% Temperature decrease,"[1]; 75 mg/Kg i.p., 3 h",39.4%
same,% Temperature decrease,"[1]; 75 mg/Kg per os, 1 h",17.0%
same,% Temperature decrease,"[1]; 75 mg/Kg per os, 2 h",29.1%
same,% Temperature decrease,"[1]; 75 mg/Kg per os, 3 h",39.4%
same,% Temperature decrease,"[1]; 100 mg/Kg i.p., 1 h",23.1%
same,% Temperature decrease,"[1]; 100 mg/Kg i.p., 2 h",39.3%
same,% Temperature decrease,"[1]; 100 mg/Kg i.p., 3 h",60.2%
same,% Temperature decrease,"[1]; 100 mg/Kg per os, 1 h",21.0%
same,% Temperature decrease,"[1]; 100 mg/Kg per os, 2 h",35.1%
same,% Temperature decrease,"[1]; 100 mg/Kg per os, 3 h",51.8%
same,% incidence/10 (head is drawing 38),gastric lesions; 50 mg/Kg orally,7
same,mean no. of lesions,gastric lesions; 50 mg/Kg orally,1
same,gastric damage index,gastric lesions; 50 mg/Kg orally,9
same,mean severity,gastric lesions; 50 mg/Kg orally,1
same,% incidence/10 (head is drawing 38),gastric lesions; 100 mg/Kg orally,8
same,mean no. of lesions,gastric lesions; 100 mg/Kg orally,1.5
same,gastric damage index,gastric lesions; 100 mg/Kg orally,10.5
same,mean severity,gastric lesions; 100 mg/Kg orally,1
same,% incidence/10 (head is drawing 38),gastric lesions; 200 mg/Kg orally,8
same,mean no. of lesions,gastric lesions; 200 mg/Kg orally,2
same,gastric damage index,gastric lesions; 200 mg/Kg orally,11.5
same,mean severity,gastric lesions; 200 mg/Kg orally,1.5
"Cc1ccc(C(=O)c2ccc(CC(=O)N3CCOCC3)n2C)cc1 [Compound 3-a, 1-methyl-5-p-toluoylpyrrole-2-N-(4-morpholinyl) acetamide]",% Temperature decrease,"[1]; 50 mg/Kg i.p., 1 h",16.0%
same,% Temperature decrease,"[1]; 50 mg/Kg i.p., 2 h",26.0%
same,% Temperature decrease,"[1]; 50 mg/Kg i.p., 3 h",36.7%
same,% Temperature decrease,"[1]; 50 mg/Kg per os, 1 h",15.5%
same,% Temperature decrease,"[1]; 50 mg/Kg per os, 2 h",23.0%
same,% Temperature decrease,"[1]; 50 mg/Kg per os, 3 h",32.1%
same,% Temperature decrease,"[1]; 75 mg/Kg i.p., 1 h",19.0%
same,% Temperature decrease,"[1]; 75 mg/Kg i.p., 2 h",30.2%
same,% Temperature decrease,"[1]; 75 mg/Kg i.p., 3 h",39.4%
same,% Temperature decrease,"[1]; 75 mg/Kg per os, 1 h",16.2%
same,% Temperature decrease,"[1]; 75 mg/Kg per os, 2 h",29.1%
same,% Temperature decrease,"[1]; 75 mg/Kg per os, 3 h",39.4%
same,% Temperature decrease,"[1]; 100 mg/Kg i.p., 1 h",21.3%
same,% Temperature decrease,"[1]; 100 mg/Kg i.p., 2 h",36.1%
same,% Temperature decrease,"[1]; 100 mg/Kg i.p., 3 h",58.1%
same,% Temperature decrease,"[1]; 100 mg/Kg per os, 1 h",22.0%
same,% Temperature decrease,"[1]; 100 mg/Kg per os, 2 h",29.5%
same,% Temperature decrease,"[1]; 100 mg/Kg per os, 3 h",56.1%
same,% incidence/10 (head is drawing 38),gastric lesions; 50 mg/Kg orally,7
same,mean no. of lesions,gastric lesions; 50 mg/Kg orally,1
same,gastric damage index,gastric lesions; 50 mg/Kg orally,9
same,mean severity,gastric lesions; 50 mg/Kg orally,1
same,% incidence/10 (head is drawing 38),gastric lesions; 100 mg/Kg orally,8
same,mean no. of lesions,gastric lesions; 100 mg/Kg orally,1.5
same,gastric damage index,gastric lesions; 100 mg/Kg orally,11.5
same,mean severity,gastric lesions; 100 mg/Kg orally,2
same,% incidence/10 (head is drawing 38),gastric lesions; 200 mg/Kg orally,9
same,mean no. of lesions,gastric lesions; 200 mg/Kg orally,1.5
same,gastric damage index,gastric lesions; 200 mg/Kg orally,12.5
same,mean severity,gastric lesions; 200 mg/Kg orally,2
"Cc1ccc(C(=O)c2ccc(CC(=O)N3CCN(C)CC3)n2C)cc1 [Compound 3-b, 1-methyl-5-p-toluoylpyrrole-2-N-[(4-methyl)-1-piperazinyl] acetamide]",% Temperature decrease,"[1]; 50 mg/Kg i.p., 1 h",12.9%
same,% Temperature decrease,"[1]; 50 mg/Kg i.p., 2 h",23.0%
same,% Temperature decrease,"[1]; 50 mg/Kg i.p., 3 h",38.3%
same,% Temperature decrease,"[1]; 50 mg/Kg per os, 1 h",13.1%
same,% Temperature decrease,"[1]; 50 mg/Kg per os, 2 h",21.0%
same,% Temperature decrease,"[1]; 50 mg/Kg per os, 3 h",36.2%
same,% Temperature decrease,"[1]; 75 mg/Kg i.p., 1 h",23.4%
same,% Temperature decrease,"[1]; 75 mg/Kg i.p., 2 h",29.0%
same,% Temperature decrease,"[1]; 75 mg/Kg i.p., 3 h",48.5%
same,% Temperature decrease,"[1]; 75 mg/Kg per os, 1 h",19.0%
same,% Temperature decrease,"[1]; 75 mg/Kg per os, 2 h",29.1%
same,% Temperature decrease,"[1]; 75 mg/Kg per os, 3 h",40.6%
same,% Temperature decrease,"[1]; 100 mg/Kg i.p., 1 h",32.9%
same,% Temperature decrease,"[1]; 100 mg/Kg i.p., 2 h",39.0%
same,% Temperature decrease,"[1]; 100 mg/Kg i.p., 3 h",60.1%
same,% Temperature decrease,"[1]; 100 mg/Kg per os, 1 h",27.0%
same,% Temperature decrease,"[1]; 100 mg/Kg per os, 2 h",35.0%
same,% Temperature decrease,"[1]; 100 mg/Kg per os, 3 h",59.7%
same,% incidence/10 (head is drawing 38),gastric lesions; 50 mg/Kg orally,7
same,mean no. of lesions,gastric lesions; 50 mg/Kg orally,1
same,gastric damage index,gastric lesions; 50 mg/Kg orally,9
same,mean severity,gastric lesions; 50 mg/Kg orally,1
same,% incidence/10 (head is drawing 38),gastric lesions; 100 mg/Kg orally,7
same,mean no. of lesions,gastric lesions; 100 mg/Kg orally,1
same,% incidence/10 (head is drawing 38),gastric lesions; 200 mg/Kg orally,8
same,mean no. of lesions,gastric lesions; 200 mg/Kg orally,2
"Cc1ccc(C(=O)c2ccc(CC(=O)O)n2C)cc1 [Tolmetin Na.2H2 O, 1-methyl-5-p-toluoylpyrrole-2-acetic acid, reference compound]",% Protection,"[2]; 10 mg/Kg oral, 1 h before phenyl-quinone",51.8%
same,% Protection,"[2]; 10 mg/Kg oral, 2 h before phenyl-quinone",35.5%
same,% Protection,"[2]; 10 mg/Kg oral, 4 h before phenyl-quinone",32.0%
same,% Protection,"[2]; 10 mg/Kg oral, 6 h before phenyl-quinone",17.2%
same,% Protection,"[2]; 10 mg/Kg oral, 8 h before phenyl-quinone",20.2%
same,% Protection,"[2]; 10 mg/Kg oral, 16 h before phenyl-quinone",3.0%
same,% Protection,"[2]; 10 mg/Kg oral, 24 h before phenyl-quinone",5.0%
same,% Protection,"[2]; 20 mg/Kg oral, 1 h before phenyl-quinone",79.6%
same,% Protection,"[2]; 20 mg/Kg oral, 2 h before phenyl-quinone",78.0%
same,% Protection,"[2]; 20 mg/Kg oral, 4 h before phenyl-quinone",50.0%
same,% Protection,"[2]; 20 mg/Kg oral, 6 h before phenyl-quinone",45.3%
same,% Protection,"[2]; 20 mg/Kg oral, 8 h before phenyl-quinone",40.1%
same,% Protection,"[2]; 20 mg/Kg oral, 16 h before phenyl-quinone",8.7%
same,% Protection,"[2]; 20 mg/Kg oral, 24 h before phenyl-quinone",4.2%
same,% Protection,"[2]; 50 mg/Kg oral, 1 h before phenyl-quinone",81.0%
same,% Protection,"[2]; 50 mg/Kg oral, 2 h before phenyl-quinone",84.6%
same,% Protection,"[2]; 50 mg/Kg oral, 4 h before phenyl-quinone",62.5%
same,% Protection,"[2]; 50 mg/Kg oral, 6 h before phenyl-quinone",49.7%
same,% Protection,"[2]; 50 mg/Kg oral, 8 h before phenyl-quinone",45.0%
same,% Protection,"[2]; 50 mg/Kg oral, 16 h before phenyl-quinone",9.3%
same,% Protection,"[2]; 50 mg/Kg oral, 24 h before phenyl-quinone",3.8%

# From patent US4882349A, “Pyrrolacetic amides having antiinflammatory activity” (priority 1982, dated 1989)
